biological target: T1, c-Met kinase (recombinant c-Met) (Homo sapiens, UniProt P08581); assay: In vitro kinase assay I (homogeneous time-resolved fluorescence tyrosine kinase assay); type: biochemical
T1 construct: 0.27 nM recombinant c-Met
Method: The kinase activities of c-Met are measured using a modified version of the homogeneous-time-resolved tyrosine kinase assay described by Park et al. (1999, Anal. Biochem. 269:94-104).
The procedure for determining the potency of a compound to inhibit c-Met kinase comprises the following steps: • 1. Prepare 3-fold serial diluted compound solutions in 100% dimethyl sulfoxide (DMSO) at 20× of the desired final concentrations in a 384-well plate. • 2. Prepare a master reaction mix containing 6.67 mM MgCl2, 133.3 mM NaCl, 66.7 mM Tris-HCl (pH 7.4), 0.13 mg/ml BSA, 2.67 mM dithiothreitol, 0.27 nM recombinant c-Met and 666.7 nM biotinylated synthetic peptide substrate (biotin-ahx-EQEDEPEGDYFEWLE-CONH2) (SEQ.ID.NO.:1). • 3. In a black assay plate, add 1.5 μl of compound solution (or DMSO) and 22.5 μl of master reaction mix per well. Initiate the kinase reaction by adding 6 μl of 0.25 mM MgATP per well. Allow the reactions to proceed for 60 min at room temperature. The final conditions for the reaction are 0.2 nM c-Met, 0.5 μM substrate, 50 μM MgATP, 5 mM MgCl2, 100 mM NaCl, 2 mM DTT, 0.1 mg/ml BSA, 50 mM Tris (pH 7.4) and 5% DMSO. • 4. Stop the kinase reaction with 30 μl of Stop/Detection buffer containing 10 mM EDTA, 25 mM HEPES, 0.1% TRITON X-100, 0.750 nM Eu-chelate labeled anti-phosphotyrosine antibody PY20 (cat. #AD0067, PerkinElmer) and 50 μg/ml Streptavidin-allophycocyanin conjugate (cat. #PJ25S, Prozyme). • 5. Read HTRF signals on a Victor reader (PerkinElmer) in HTRF mode after 60-min incubation at room temperature in the dark. • 6. IC50 is determined by fitting the observed relationship between compound concentration and HTRF signal with a 4-parameter logistic equation. II. GTL-16 pY1349 Cell-Based Assay

T1 sequence (P08581 25-1390): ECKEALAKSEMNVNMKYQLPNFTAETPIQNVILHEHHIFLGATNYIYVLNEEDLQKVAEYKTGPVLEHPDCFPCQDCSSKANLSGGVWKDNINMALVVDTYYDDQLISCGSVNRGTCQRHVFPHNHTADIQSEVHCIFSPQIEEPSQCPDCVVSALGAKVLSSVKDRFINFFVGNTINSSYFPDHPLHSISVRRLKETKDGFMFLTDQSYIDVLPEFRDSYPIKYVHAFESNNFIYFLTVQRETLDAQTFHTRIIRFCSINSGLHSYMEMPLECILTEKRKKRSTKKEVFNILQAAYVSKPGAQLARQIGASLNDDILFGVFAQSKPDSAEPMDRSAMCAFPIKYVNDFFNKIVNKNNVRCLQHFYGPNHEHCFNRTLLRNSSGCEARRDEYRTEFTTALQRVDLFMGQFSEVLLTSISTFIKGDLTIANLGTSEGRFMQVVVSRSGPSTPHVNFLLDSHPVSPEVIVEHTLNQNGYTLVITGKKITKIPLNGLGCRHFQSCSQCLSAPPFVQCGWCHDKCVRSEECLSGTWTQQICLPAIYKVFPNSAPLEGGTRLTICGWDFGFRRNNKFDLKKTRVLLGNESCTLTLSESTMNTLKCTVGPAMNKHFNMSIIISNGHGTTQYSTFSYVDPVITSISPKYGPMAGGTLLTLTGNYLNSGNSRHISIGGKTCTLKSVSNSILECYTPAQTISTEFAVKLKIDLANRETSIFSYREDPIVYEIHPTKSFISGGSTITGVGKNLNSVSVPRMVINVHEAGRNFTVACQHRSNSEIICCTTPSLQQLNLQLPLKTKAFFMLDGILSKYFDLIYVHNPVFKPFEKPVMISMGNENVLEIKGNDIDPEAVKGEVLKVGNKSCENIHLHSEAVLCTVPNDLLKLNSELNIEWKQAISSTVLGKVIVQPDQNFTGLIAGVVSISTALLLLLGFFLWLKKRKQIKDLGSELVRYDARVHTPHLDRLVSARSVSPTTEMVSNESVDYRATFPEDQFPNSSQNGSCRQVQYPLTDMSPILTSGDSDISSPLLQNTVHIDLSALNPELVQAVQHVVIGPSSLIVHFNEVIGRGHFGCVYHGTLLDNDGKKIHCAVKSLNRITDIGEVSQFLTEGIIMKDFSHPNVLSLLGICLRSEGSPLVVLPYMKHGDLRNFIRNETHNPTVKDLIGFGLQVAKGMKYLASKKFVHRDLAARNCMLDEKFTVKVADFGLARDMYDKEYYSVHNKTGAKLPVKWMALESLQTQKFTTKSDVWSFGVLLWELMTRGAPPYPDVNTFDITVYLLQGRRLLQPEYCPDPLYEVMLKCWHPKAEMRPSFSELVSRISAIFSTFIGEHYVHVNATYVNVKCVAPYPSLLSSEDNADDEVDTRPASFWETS

| Compound | IC50 [nM] |
| --- | --- |
| O=C(Nc1cccc(Cc2nn(-c3cc(F)c(F)c(F)c3)ccc2=O)c1)OCC1CCOC1 (racemic) [Example 559, rac-tetrahydrofuran-3-ylmethyl (3-{[4-oxo-1-(3,4,5-trifluorophenyl)-1,4-dihydropyridazin-3-yl]methyl}phenyl)carbamate] | < 100 |
| Cn1cc(-n2ccc(=O)c(Cc3cccc(-c4ncc(C(C)(C)O)cn4)c3)n2)cn1 [Example 167, 3-{3-[5-(1-hydroxy-1-methylethyl)pyrimidin-2-yl]benzyl}-1-(1-methyl-1H-pyrazol-4-yl)pyridazin-4(1H)-one] | < 100 |
| Cn1cc(-n2ccc(=O)c(Cc3cccc(NC(=O)OCCC4(O)CCOC(C)(C)C4)c3)n2)cn1 (racemic) [Example 612, rac-2-(4-hydroxy-2,2-dimethyl-tetrahydro-2H-pyran-4-yl)ethyl (3-{[1-(1-methyl-1H-pyrazol-4-yl)-4-oxo-1,4-dihydropyridazin-3-yl]methyl}phenyl)carbamate] | < 100 |
| CCOc1cnc(-c2cc(Cc3nn(-c4cnn(C)c4)ccc3=O)ccc2F)nc1 [Example 119, 3-[3-(5-ethoxypyrimidin-2-yl)-4-fluorobenzyl]-1-(1-methyl-1H-pyrazol-4-yl)pyridazin-4(1H)-one] | 100 to 1000 |
| COCCOc1cnc(-c2cccc(Cc3nn(-c4ccc(Cl)c(F)c4)ccc3=O)c2)nc1 [Example 153, 1-(4-chloro-3-fluorophenyl)-3-{3-[5-(2-methoxyethoxy)pyrimidin-2-yl]benzyl}pyridazin-4(1H)-one] | < 100 |
| CCOc1cnc(-c2cccc(C(F)c3nn(-c4cnn(C)c4)ccc3=O)c2)nc1 (single isomer, unassigned) [Example 655, 3-[(S or R)-[3-(5-ethoxypyrimidin-2-yl)phenyl](fluoro)methyl]-1-(1-methyl-1H-pyrazol-4-yl)pyridazin-4(1H)-one] | 100 to 1000 |
| CC(c1cccc(-c2ncc(OC3CCOCC3)cn2)c1)c1nn(-c2cnn(C)c2)ccc1=O (single isomer, unassigned) [Example 212, 1-(1-methyl-1H-pyrazol-4-yl)-3-[(1R or S)-1-{3-[5-(tetrahydro-2H-pyran-4-yloxy)pyrimidin-2-yl]phenyl}ethyl]pyridazin-4(1H)-one] | < 100 |
| Cn1cc(-n2ccc(=O)c(Cc3cccc(NC(=O)OCC4CCOC(C)(C)C4)c3)n2)cn1 (racemic) [Example 611, rac-(2,2-dimethyl-tetrahydro-2H-pyran-4-yl)methyl (3-{[1-(1-methyl-1H-pyrazol-4-yl)-4-oxo-1,4-dihydropyridazin-3-yl]methyl}phenyl)carbamate] | < 100 |
| CC(c1cccc(-c2ncc(OCC(C)(C)O)cn2)c1)c1nn(-c2ccc(F)c(F)c2)ccc1=O (single isomer, unassigned) [Example 250, 1-(3,4-difluorophenyl)-3-[(1R or S)-1-{3-[5-(2-hydroxy-2-methylpropoxy)pyrimidin-2-yl]phenyl}ethyl]pyridazin-4(1H)-one] | < 100 |
| CC(C)COC(=O)Nc1cccc(Cc2nn(-c3cnn(CCN)c3)ccc2=O)c1 [Example 648, 2-methylpropyl [3-({1-[1-(2-aminoethyl)-1H-pyrazol-4-yl]-4-oxo-1,4-dihydropyridazin-3-yl}methyl)phenyl]carbamate] | < 100 |
| Cn1cc(-n2ccc(=O)c(Cc3cccc(-c4ncn(CCCC5OCC(C)(C)CO5)n4)c3)n2)cn1 [Example 720, 3-(3-{1-[3-(5,5-dimethyl-1,3-dioxan-2-yl)propyl]-1H-1,2,4-triazol-3-yl}benzyl)-1-(1-methyl-1H-pyrazol-4-yl)pyridazin-4(1H)-one] | < 100 |
| Cn1cc(-n2ccc(=O)c(Cc3cccc(NC(=O)OCCN4CCOCC4=O)c3)n2)cn1 [Example 535, 2-(3-oxomorpholin-4-yl)ethyl (3-{[1-(1-methyl-1H-pyrazol-4-yl)-4-oxo-1,4-dihydropyridazin-3-yl]methyl}phenyl)carbamate] | < 100 |
| CCOC(=O)Nc1cccc(Cc2nn(-c3ccc(F)c(F)c3)ccc2=O)c1 [Example 504, ethyl (3-{[1-(3,4-difluorophenyl)-4-oxo-1,4-dihydropyridazin-3-yl]methyl}phenyl)carbamate] | < 100 |
| CC(C)(O)COc1cnc(-c2cccc(Cc3nn(-c4cc(F)c(F)c(F)c4)ccc3=O)c2)nc1 [Example 362, 3-{3-[5-(2-hydroxy-2-methylpropoxy)pyrimidin-2-yl]benzyl}-1-(3,4,5-trifluorophenyl)pyridazin-4(1H)-one] | < 100 |
| Cn1cc(-n2ccc(=O)c(Cc3cccc(-c4ncc(OCC(O)CN5CCOCC5)cn4)c3)n2)cn1 (racemic) [Example 368, rac-3-{3-[5-(2-hydroxy-3-morpholin-4-ylpropoxy)pyrimidin-2-yl]benzyl}-1-(1-methyl-1H-pyrazol-4-yl)pyridazin-4(1H)-one] | < 100 |
| COCc1cnc(-c2cccc(C(C)c3nn(-c4cnn(C)c4)ccc3=O)c2)nc1 (single isomer, unassigned) [Example 219, 3-((1S or R)-1-{3-[5-(methoxymethyl)pyrimidin-2-yl]phenyl}ethyl)-1-(1-methyl-1H-pyrazol-4-yl)pyridazin-4(1H)-one] | 100 to 1000 |
| Cn1cc(-n2ccc(=O)c(Cc3cccc(-c4ncc(OCC5(O)CCOCC5)cn4)c3)n2)cn1 [Example 365, 3-(3-{5-[(4-hydroxytetrahydro-2H-pyran-4-yl)methoxy]pyrimidin-2-yl}benzyl)-1-(1-methyl-1H-pyrazol-4-yl)pyridazin-4(1H)-one] | < 100 |
| CCc1cnc(-c2cccc(Cc3nn(-c4cnn(C)c4)ccc3=O)c2)nc1 [Example 391, 3-[3-(5-Ethylpyrimidin-2-yl)benzyl]-1-(1-methyl-1H-pyrazol-4-yl)pyridazin-4(1H)-one] | < 100 |
| COC(C)(C)COc1cnc(-c2cccc(C(C)c3nn(-c4ccc(F)c(F)c4)ccc3=O)c2)nc1 (single isomer, unassigned) [Example 252, 1-(3,4-difluorophenyl)-3-[(1R or S)-1-{3-[5-(2-methoxy-2-methylpropoxy)pyrimidin-2-yl]phenyl}ethyl]pyridazin-4(1H)-one] | < 100 |
| Cn1cc(-n2ccc(=O)c(Cc3cccc(-c4ncc(OCC(F)(F)CN5CCOCC5)cn4)c3)n2)cn1 [Example 259, 3-(3-{5-[2,2-Difluoro-3-(morpholin-4-yl)propoxy]pyrimidin-2-yl}benzyl)-1-(1-methyl-1H-pyrazol-4-yl)pyridazin-4(1H)-one] | < 100 |
| COCCNc1cnc(-c2cccc(Cc3nn(-c4cnn(C)c4)ccc3=O)c2)nc1 [Example 453, 3-(3-{5-[(2-methoxyethyl)amino]pyrimidin-2-yl}benzyl)-1-(1-methyl-1H-pyrazol-4-yl)pyridazin-4(1H)-one] | < 100 |
| CC1CCN(CCCOC(=O)Nc2cccc(Cc3nn(-c4cc(F)c(F)c(F)c4)ccc3=O)c2)CC1 [Example 553, 3-(4-methylpiperidin-1-yl)propyl (3-{[4-oxo-1-(3,4,5-trifluorophenyl)-1,4-dihydropyridazin-3-yl]methyl}phenyl)carbamate] | < 100 |
| COCCOC(=O)Nc1cccc(Cc2nn(-c3ccc(F)c(F)c3)ccc2=O)c1 [Example 506, 2-methoxyethyl (3-{[1-(3,4-difluorophenyl)-4-oxo-1,4-dihydropyridazin-3-yl]methyl}phenyl)carbamate] | < 100 |

— US20120264735A1 (priority 2009, published 2012)
